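How tested: cells in 96-well plates exposed to compound for 48 hours at five concentrations. At the GI50, growth is halved.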 The source made the active and inactive calls. Rule as the data show it: active = GI50 up to about 1.1 µM and inactive = higher.
Key:
Assay in all cases: growth of human tumour cells (NCI), 48 h
ACHN = test system: ACHN
COLO 205 = test system: COLO 205
EKVX = test system: EKVX
HCT-116 = test system: HCT-116
KM12 = test system: KM12
LOX IMVI = test system: LOX IMVI
M14 = test system: M14
MDA-MB-231 = test system: MDA-MB-231
MDA-MB-435 = test system: MDA-MB-435
Malme-3M = test system: Malme-3M
NCI-H23 = test system: NCI-H23
SF-268 = test system: SF-268
SF-539 = test system: SF-539
SK-MEL-5 = test system: SK-MEL-5
SNB-75 = test system: SNB-75
SR = test system: SR
SW-620 = test system: SW-620
UACC-257 = test system: UACC-257
NCI/ADR-RES = test system: NCI/ADR-RES

Measured: GI50

Cc1cc(O)nc(NN2C(Cl)C(=O)C2c2ccc(O)cc2)n1 (centres undefined)
inactive: ACHN 8.07 µM | COLO 205 18.7 µM | EKVX 13.6 µM | HCT-116 4.81 µM | KM12 8.63 µM | LOX IMVI 2.69 µM | M14 11.4 µM | MDA-MB-231 14 µM | MDA-MB-435 8.47 µM | Malme-3M 14.4 µM | NCI-H23 9.62 µM | SF-268 8.45 µM | SF-539 8.93 µM | SK-MEL-5 8.49 µM | SNB-75 1.87 µM | SR 3.08 µM | SW-620 5.21 µM | UACC-257 13.1 µM

CCOC(=O)C1=C(Nc2cccc(OC)c2)OCC1=O
inactive: ACHN > 100 µM | COLO 205 > 100 µM | EKVX > 100 µM | HCT-116 > 100 µM | KM12 > 100 µM | LOX IMVI > 100 µM | M14 > 100 µM | MDA-MB-231 > 100 µM | MDA-MB-435 > 100 µM | NCI-H23 > 100 µM | NCI/ADR-RES > 100 µM | SF-268 > 100 µM | SF-539 > 100 µM | SK-MEL-5 > 100 µM | SNB-75 > 100 µM | SR > 100 µM | SW-620 > 100 µM | UACC-257 > 100 µM

CC(=O)c1ccc(N2CCN(C3=CC(=O)c4c(O)ccc(O)c4C3=O)CC2)cc1
inactive: COLO 205 35.5 µM | EKVX > 100 µM | HCT-116 7.57 µM | KM12 51.8 µM | M14 40.7 µM | MDA-MB-231 13.4 µM | Malme-3M 4.36 µM | NCI-H23 34 µM | NCI/ADR-RES 3.44 µM | SF-268 33 µM | SF-539 > 100 µM | SK-MEL-5 > 10 µM | SNB-75 24.2 µM | SR 22.5 µM | SW-620 35.6 µM | UACC-257 > 100 µM

CC1=NN(c2ccccc2)C(=O)C1C(=O)C(=O)Nc1ccc(C)cc1C (centres undefined)
inactive: ACHN > 100 µM | COLO 205 > 100 µM | EKVX > 100 µM | HCT-116 > 100 µM | KM12 > 100 µM | LOX IMVI > 100 µM | M14 > 100 µM | Malme-3M > 100 µM | NCI-H23 > 100 µM | NCI/ADR-RES > 100 µM | SF-268 > 100 µM | SF-539 > 100 µM | SK-MEL-5 > 100 µM | SNB-75 > 100 µM | SR > 100 µM | SW-620 > 100 µM | UACC-257 > 100 µM

From ChEMBL document CHEMBL1201862, “PubChem BioAssay data set” (2004)
